Laboratory results from the NIST ThermoML archive (doi:10.1021/je060032n).

Assay: xn = mol fraction of the nth substance listed
Conditions: 101 kPa, Liquid; for viscosity: Capillary tube (Ostwald / Ubbelohde) method

NCCNCCO [N-(2-aminoethyl)ethanolamine] + O
Conditions | mass density [kg/m3] | viscosity [mPa·s]
298.15 K, x1 = 0.05 | 1015.65 | 2.45
298.15 K, x1 = 0.07 | 1022.28 | 3.87
298.15 K, x1 = 0.0999 | 1030.85 | 6.76
298.15 K, x1 = 0.1992 | 1047.37 | 30
298.15 K, x1 = 0.3 | 1050.66 | 70.9
298.15 K, x1 = 0.3997 | 1048.18 | 104
298.15 K, x1 = 0.4991 | 1044.05 | 121
298.15 K, x1 = 0.599 | 1039.62 | 124
298.15 K, x1 = 0.6991 | 1035.48 | 121
298.15 K, x1 = 0.7997 | 1031.83 | 116
298.15 K, x1 = 0.9002 | 1028.28 | 109
298.15 K, x1 = 1 | 1025.28 | 98.6
303.15 K, x1 = 0.05 | 1013.65 | 2.16
303.15 K, x1 = 0.07 | 1020.01 | 3.24
303.15 K, x1 = 0.0999 | 1028.24 | 5.5
303.15 K, x1 = 0.1992 | 1044.02 | 22.6
303.15 K, x1 = 0.3 | 1047.05 | 50.4
303.15 K, x1 = 0.3997 | 1044.5 | 72.8
303.15 K, x1 = 0.4991 | 1040.33 | 83.9
303.15 K, x1 = 0.599 | 1035.89 | 87
303.15 K, x1 = 0.6991 | 1031.74 | 84.8
303.15 K, x1 = 0.7997 | 1028.11 | 82.5
303.15 K, x1 = 0.9002 | 1024.57 | 78.1
303.15 K, x1 = 1 | 1021.53 | 70.5
313.15 K, x1 = 0.05 | 1009.22 | 1.63
313.15 K, x1 = 0.07 | 1015.13 | 2.29
313.15 K, x1 = 0.0999 | 1022.7 | 3.83
313.15 K, x1 = 0.1992 | 1037.13 | 13.5
313.15 K, x1 = 0.3 | 1039.7 | 27.8
313.15 K, x1 = 0.3997 | 1037.01 | 38.9
313.15 K, x1 = 0.4991 | 1032.79 | 44.8
313.15 K, x1 = 0.599 | 1028.36 | 46.5
313.15 K, x1 = 0.6991 | 1024.21 | 45.7
313.15 K, x1 = 0.7997 | 1020.57 | 44.8
313.15 K, x1 = 0.9002 | 1017.06 | 44.4
313.15 K, x1 = 1 | 1014.02 | 39.4
323.15 K, x1 = 0.05 | 1004.24 | 1.26
323.15 K, x1 = 0.07 | 1009.76 | 1.75
323.15 K, x1 = 0.0999 | 1016.8 | 2.8
323.15 K, x1 = 0.1992 | 1030.03 | 8.7
323.15 K, x1 = 0.3 | 1032.15 | 16.5
323.15 K, x1 = 0.3997 | 1029.37 | 22.5
323.15 K, x1 = 0.4991 | 1025.13 | 25.6
323.15 K, x1 = 0.599 | 1020.71 | 26.7
323.15 K, x1 = 0.6991 | 1016.59 | 26.4
323.15 K, x1 = 0.7997 | 1012.96 | 26
323.15 K, x1 = 0.9002 | 1009.48 | 26
323.15 K, x1 = 1 | 1006.44 | 23.4
333.15 K, x1 = 0.05 | 998.75 | 1.01
333.15 K, x1 = 0.07 | 1003.89 | 1.38
333.15 K, x1 = 0.0999 | 1010.53 | 2.05
333.15 K, x1 = 0.1992 | 1022.69 | 5.9
333.15 K, x1 = 0.3 | 1024.44 | 10.5
333.15 K, x1 = 0.3997 | 1021.57 | 13.8
333.15 K, x1 = 0.4991 | 1017.35 | 15.8
333.15 K, x1 = 0.599 | 1012.96 | 16.5
333.15 K, x1 = 0.6991 | 1008.88 | 16.5
333.15 K, x1 = 0.7997 | 1005.3 | 16.4
333.15 K, x1 = 0.9002 | 1001.84 | 16.5
333.15 K, x1 = 1 | 998.83 | 14.8
343.15 K, x1 = 0.05 | 992.77 | 0.839
343.15 K, x1 = 0.07 | 997.34 | 1.11
343.15 K, x1 = 0.0999 | 1003.89 | 1.6
343.15 K, x1 = 0.1992 | 1015.09 | 4.2
343.15 K, x1 = 0.3 | 1016.53 | 7
343.15 K, x1 = 0.3997 | 1013.6 | 9.1
343.15 K, x1 = 0.4991 | 1009.42 | 10.3
343.15 K, x1 = 0.599 | 1005.1 | 10.8
343.15 K, x1 = 0.6991 | 1001.06 | 10.8
343.15 K, x1 = 0.7997 | 997.54 | 10.8
343.15 K, x1 = 0.9002 | 994.11 | 10.7
343.15 K, x1 = 1 | 991.15 | 10.1
